From PubChem BioAssay AID179 (DTP/NCI, 2004)
Activity calls are given as the source filed them.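 The calls were made as follows: active = compounds giving half or more protection of infected cells from virus-caused growth loss, again on retest; inactive = the rest.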

System: CEM cells HIV-1 protection, formazan growth assay
Assay: NCI AIDS Antiviral Assay
Details: for IC50: measured here: growth of uninfected CEM cells
In short: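 Protection of CEM cells against HIV-1 was scored from cell growth (soluble formazan) across five concentrations, with parallel uninfected cells. Lack of protection may reflect toxicity.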

| SMILES | EC50 [µM] | IC50 [µM] | outcome |
| --- | --- | --- | --- |
| CN(C)NC(=O)/C(=C/c1ccc(Cl)cc1)NC(=O)c1ccccc1 | > 145 | > 145 |  |
| Cn1c(=O)c2c(nc(NCC[N+](C)(C)Cc3ccc(Cl)cc3)n2C)n(C)c1=O | > 295 | > 295 |  |
| CCN(CC)c1ccc2cc(S(=O)(=O)c3ccccc3)c(=O)oc2c1 |  |  | inactive |
| Cc1c(O)c(OC2OC(CO)C(O)C(O)C2O)cc2c1C=C[C@@H]1[C@@]2(C)C(=O)C[C@]2(C)[C@@H]([C@@](C)(O)C(O)/C=C/C(C)(C)O)[C@H](O)C[C@@]12C (some centres not stated) | > 200 | > 200 |  |
| CCOC(=O)Nc1ccc2nc(-c3cscn3)[nH]c2c1 | > 457 | 1.66 |  |
| COC(=O)C([O][Ge]([CH3])([CH3])[CH3])c1ccccc1 (configuration not stated) | > 251 | > 251 |  |
| Cc1cc(Cl)cc2c1NC(=O)C2(O)CC(=O)c1ccco1 (configuration not stated) | > 117 | 63.1 |  |
| COc1cccc(N)c1N | > 1170 | 18.2 |  |
| COC(=O)C1CC2(c3ccccc3)C(=O)c3ccccc3N2O1 (configuration not stated) |  |  | inactive |
| O=C1O[C@@H](c2ccccc2)C[C@H]1CN1CCOCC1 |  |  | inactive |
| CCCCCCCCCCCCCCCCCc1nnc(N)o1 |  |  | inactive |
| O=C(Cc1nc2ccc(C(=O)c3ccccc3)cc2[nH]c1=O)C(=O)Nc1ccc(C(F)(F)F)cc1[N+](=O)[O-] | > 69.2 | 47.9 |  |
| COc1cc2c(cc1OC)C(=O)/C(=C/c1ccc(O)cc1)CC2 |  |  | inactive |
| CC(C)(C)OC(=O)c1cccnc1/C=N/O | > 589 | 186 |  |
| CNC(=O)N(CCC#N)[C@H]1CCCC[C@@H]1N(C(=O)NC)c1ccccc1 | > 200 | > 200 |  |
| CSc1nnc(CF)c(=O)[nH]1 | > 200 | > 200 |  |
| CN1CC(C(=O)C2C(=O)c3ccccc3C2=O)C(=O)C(=O)C(C(=O)C2C(=O)c3ccccc3C2=O)C1 (configuration not stated) |  |  | inactive |
| Nc1nn2cc3c(nc2c1N=Nc1ccc(Cl)cc1)CCCC3 |  |  | inactive |
| NC1=Nc2ccccc2Sc2nc3ccccc3n21 | > 200 | 8.71 |  |
| O=S(=O)(O)CCS | > 200 | > 200 |  |
| CCOP(=O)(OCC)/C(C#N)=C/c1ccccc1 | > 676 | > 676 |  |
| COc1ccc2c(c1)CCc1cnoc1-2 | > 178 | 110 |  |
| CCC(C)(O)c1cn(-c2ccc(Cl)cc2)nn1 (configuration not stated) | > 708 | 324 |  |

| SMILES | EC50 [µM] | IC50 [µM] | outcome |
| --- | --- | --- | --- |
| CN1C(=O)NC(C=O)(CCc2ccccc2)C1=O (configuration not stated) |  |  | inactive |
| CC12CCc3ccccc3C1=NNC(=O)C2 (configuration not stated) | > 170 | > 170 |  |
| CC(NC(=O)C1CCCN1C(=O)OCc1ccccc1)C(=O)O (configuration not stated) | > 776 | > 776 |  |
| C=CCC1C(O[Si](C)(C)C(C)(C)C)C(CO[Si](C)(C)C(C)(C)C)OC1n1ccc(=O)[nH]c1=O (configuration not stated) | > 200 | 2.75 |  |
| CC(=O)Nc1cccc2cc(S(=O)(=O)O)ccc12 | > 200 | > 200 |  |
| CN(C)/N=N/c1nc[nH]c1C(N)=O | > 74.1 | 4.9 |  |
| Cc1nc2ccc(NC3OC(CO)C(O)C(O)C3O)cc2c(=O)n1-c1ccccc1 (configuration not stated) | > 200 | > 200 |  |
| CCN(CC)CC(=O)NC1c2ccccc2Oc2c(C)cccc21 (configuration not stated) | > 288 | 145 |  |
| O=c1cc2n(c(=O)[nH]1)C1OC(C(O)C1O)[C@@H]2CCO (some centres not stated) |  |  | inactive |
| COc1ccc(/C=N/NC(=O)c2sc(=S)n(-c3ccccc3)c2N)cc1 | > 9.77 | > 9.77 |  |
| O=S(=O)(c1ccccc1)N1CCC1c1ccccc1 (configuration not stated) |  |  | inactive |
| CCOC(=O)/C=C/CC(C)(C)CCOC(C)=O | > 200 | > 200 |  |
| COCc1cn(C2C=CC(CO)O2)c(=O)[nH]c1=O (configuration not stated) | 17.4 | 123 |  |
| OCC1=CCN2C[C@@H](O)[C@@H](O)[C@@H]12 | > 200 | > 200 |  |
| O=[N+]([O-])c1ccc(N2N=C(c3ccc(NCc4nc5ccccc5[nH]4)cc3)CC2c2ccco2)cc1 (configuration not stated) | > 15.1 | > 15.1 |  |
| O=COC1CC(n2ccc(=O)[nH]c2=O)OC1CO (configuration not stated) | > 4570 | 263 |  |
| CN(C)c1nc2n(CCO)ccnc-2c(=O)n1 | > 100 | > 100 |  |
| N#CN/C(N)=N/C/N=C(\N)NC#N | > 501 | > 501 |  |
| COc1ccc(-c2c(C#N)c(N)n(C3OCC(O)C(O)C3O)c(=S)c2C#N)cc1 (configuration not stated) | > 200 | 117 |  |
| O=S1(=O)c2ccccc2N(c2ccccc2)c2nnnn21 | > 79.4 | 33.1 |  |
| N#C/C(C(=O)Nc1ccccc1)=C(/N)N1CCOCC1 | > 200 | > 200 |  |
| COc1ccc(/C=c2/s/c(=C(\C#N)c3nc4ccccc4[nH]3)n(-c3ccccc3)c2=O)cc1 | > 200 | 37.2 |  |
| CC1(C)OP(=O)(O)C=C1Sc1ccc([N+](=O)[O-])cc1[N+](=O)[O-] | > 200 | > 200 |  |
